Measured values: US11708344B2, “Flavone derivatives for the treatment and prophylaxis of hepatitis B virus disease” (Hoffmann-La Roche Inc., priority 2018, dated 2023)

Tested on: cccDNA in HepDES19 cells
Assay: cccDNA Southern Blot assay
Format: cell-based, HBV
Settings: 5 days' compound treatment, FIG. 1
Procedure: HepDES19 cells were seeded at 4*10^6 cells per T150 in the culture medium (Dulbecco's Modified Eagle Medium: Nutrient Mixture F-12 [DMEM-F12, Gibco Cat. 11320-82], 10% Fetal Bovine Serum [FBS, Clontech Cat. 631101], 0.1 mM Non-Essential Amino Acids Solution [NEAA, Gibco Cat. 11140-050], 50 μg/mL Penicillin-Streptomycin [PS, Invitrogen Cat. 15140-163], 500 μg/mL Geneticin [G418, Invitrogen Cat. 10131-027]) in the absence of Tet for 8 days. These cells were seeded at the density of 1×10^6 cells per well in 6-well plate. At 24 hours after seeding, serial dilutions of compounds made with DMSO (Sigma, Cat. D2650) were further diluted with the same culture medium as described above before they were added to the cells to reach desired final compound concentrations and 1% DMSO concentration. After 5 days' compound treatment, the cells growing in one well from 6-well plate were re-suspended with 500 μL re-suspension buffer (50 mM tris [hydroxymethyl]amino methane pH 7.5), 10 mM ethylenediaminetetraacetic acid (EDTA), 50 μg/mL RNase A [Qiagen, Cat. 158922], 500 μL of 1.2% sodium dodecyl sulfate (SDS) was then added into the re-suspended cells to lyse the cells. After 15 minutes' incubation, 700 μL precipitation buffer (3M cesium chloride, 1M potassium acetate, 0.67M acetic acid) was added and the lysate was incubated at 4° C. for 2 h. […]

For `O=c1cc(-c2ccc(Br)cc2OCCO[C@H]2C[C@@H](C(=O)O)C2)oc2c(Cl)cccc12` [Example C003-A, Cis-3-[2-[5-bromo-2-(8-chloro-4-oxo-chromen-2-yl)phenoxy]ethoxy]cyclobutanecarboxylic acid], the “cccDNA level (Southern Blot)” value was “dose-dependently reduced cccDNA level”.
